Measurements taken from patent US8633185B2 (priority 2005, dated 2014).

Legend:
[1] = Single intravenous maximum tolerated dose; format: in vivo, mice; details: previously established
[2] = tested on: LOXIMVI human melanoma cells; assay: LOXIMVI cell line cytotoxicity (resazurin); format: cell-based; details: 96 hours, read-out: ZC-423 IC50
Procedure: (§1) LOXIMVI and OVCAR-5 Cell Lines
(§2) A cell solution containing 5×10^4 cells/ml of either LOXIMVI human melanoma cells or OVCAR-5 human ovarian tumour cells was made up in phenol red free RPMI 1640 (Sigma) supplemented with 10% foetal calf serum (Sigma) and 20 mM L-glutamine (Sigma). 190 μl cell solution was added to each well of a fluorescence compatible polystyrene 96 well cell culture plate (Greiner BioOne), from columns 2 to 11. 190 μl culture media was added to columns 1 and 12. Plates were incubated overnight at 37° C. in 5% CO2. Compounds were dissolved in 100% Biotech grade DMSO (Sigma) and subsequently diluted to stock concentrations in 2% DMSO. 100 μl of the stock concentrations were serially diluted 1 in 3 in 2% DMSO in intermediate polystyrene 96 well cell culture plates (Nunc). 2% DMSO was placed in the outer columns for use as blanks, and in the 2nd or 11th column (depending on whether the top or bottom of an assay plate was to be used) for use as a control. The entire row of the intermediate plate was then transferred in triplicate, 10 μl per well, to either rows B to D or E to G of the cell plate. […] Fluorescence was read at 530-570 nm excitation, 580-620 nm emission using an Envision plate reader (Applied Biosystems). Data was then analysed by Graphpad PRISM, and an IC50 obtained (defined as the compound concentration needed to reduce the cell population by half).

Solubility in water = format: physicochemical; details: saturated solution in water
Procedure: Solubility was determined by dissolving the test compound in the minimum amount of water to produce a saturated solution.

[3] = tested on: LOX IMVI (human melanomas); assay: Anti tumour activity, LOX IMVI xenograft in nude mice; format: in vivo
Procedure: LOX IMVI (human melanomas) were grown subcutaneously in nude mice (B&K Universal, Hull, UK). Tumours were transplanted as single tumour fragments in the flank by trocar. Groups of 8 tumour-bearing mice were treated with ZC423 at the previously established single intravenous (iv) maximum tolerated dose (MTD) of 3 mgkg^−1 using 5% DMA/saline as the vehicle. Control mice (n=8) were treated with vehicle alone.
Treatment commenced when tumours could be reliably measured by calipers (mean dimensions 4×4 mm) and therapeutic effects were assessed by daily caliper measurements of the tumour and mouse weights. Tumour volumes were determined by the formula a^2×b/2 where a is the smaller and b is the larger diameter of the tumour. The results are shown in FIG. 1 as a graphs of relative tumour volume against time (▪ ZC423; ♦ Control—solvent alone).

[4] = tested on: K562 human chronic myeloid leukaemia cells; assay: K562 cell line MTT assay, 96 hour exposure; format: cell-based; details: 96 hour incubation
Procedure: In a modification of the above method, 5×10^4 K562 cells (as above) were maintained in RPMI 1640 medium (Sigma) supplemented with 10% foetal calf serum (Sigma) and 20 mM L-glutamine (Sigma) and 190 μL of this solution incubated with specific doses of the drug (10 μL) for 96 hours at 37° C. in 5% CO2. 250 μg/ml (final) MTT was added to each well and the plates incubated for a further 4 hours. Absorbance was read at 450 nm using an Envision plate reader (Applied Biosystems). Data was then analysed by Graphpad PRISM, and an IC50 obtained (defined as the compound concentration needed to reduce the cell population by half).

[5] = tested on: OVCAR-5 human ovarian tumour cells; assay: OVCAR-5 cell line cytotoxicity (resazurin); format: cell-based; details: 96 hours, read-out: ZC-423 IC50
Procedure: as §1, §2

[6] = tested on: Closed-circular puc18 DNA linearized with HindIII; assay: DNA cross-linking (agarose gel); format: biochemical; details: amount required to cross-link 50% of the DNA (XL50), 37° C., pH 7.2
Procedure: Closed-circular puc18 DNA was linearized with HindIII, then dephosphorylated, and finally 5′ end labeled with [y32P]-ATP using polynucleotide kinase. Reactions containing 10 ng of DNA and drug were carried out in aqueous 1×TEOA (25 mM triethanolamine, 1 mM EDTA, pH 7.2) buffer at a final volume of 50 μL at 37° C. Reactions were terminated by addition of an equal volume of stop solution (0.6 M NaOAc, 20 mM EDTA, 100 μg/mL tRNA) followed by precipitation with ethanol. Following centrifugation of the samples, the supernatants were discarded and the pellets were dried by lyophilization. […]
Electrophoresis was performed on a 0.8% submerged horizontal agarose gel, 20 cm in length for 16 hours at 38-40 V in 1×TAE running buffer (2.42 g Tris Base, 0.372 g EDTA, 0.571 ml glacial acetic acid). […] The film bands were quantitated using a BioRad GS-670 imaging laser densitometer. The percentage of cross-linking was calculated by measuring the total DNA in each lane (the sum of the densities for the double-stranded and single-stranded bands) relative to the amount of density of double-stranded band alone. A dose response curve was derived by plotting drug concentration against the determined percentage level of cross-linked DNA, from which was derived the amount required to cross-link 50% of the DNA (XL50).

K562 cells = assay: K562 cell line Alamar Blue assay; format: cell-based, human; details: 96 hours
Procedure: K562 Cell Line (Alamar Blue Assay)
The compounds to be tested were dissolved in 100% Biotech grade DMSO (Sigma) and subsequently diluted to stock concentrations of either 2 μM or 200 nM in 2% DMSO. 100 μl of the stock concentrations were serially diluted 1 in 3 in 2% DMSO in intermediate polystyrene 96 well cell culture plates (Nunc). 2% DMSO was placed in the outer columns for use as blanks, and in the 2nd or 11th column (depending on whether the top or bottom of an assay plate was to be used) for use as a control. The entire row of the intermediate plate was then transferred in triplicate to either rows B to D or E to G of a fluorescence compatible polystyrene 96 well cell culture plate (Greiner BioOne); 10 μl to each well. A cell solution containing 5×10^4 cells/ml was made up in phenol red free RPMI 1640 (Sigma) supplemented with 10% foetal calf serum (Sigma) and 20 mM L-glutamine (Sigma). 190 μl cell solution was added to each well of the assay plate, from columns 2 to 11. 190 μl culture media was added to columns 1 and 12. Plates were incubated for 96 hours at 37° C. in 5% CO2. 1 μM (final) rezasurin (converted to fluorescent resofurin by viable cells) was added to each well and the plates incubated for a further 4 hours. Fluorescence was read at 530-570 nm excitation, 580-620 nm emission using an Envision plate reader (Applied Biosystems). Data was then analysed by Graphpad PRISM, and an IC50 obtained (defined as the compound concentration needed to reduce the cell population by half).

[7] = tested on: K562 human chronic myeloid leukaemia cells; assay: K562 cell line MTT assay, 1 hour exposure; format: cell-based; details: 1 hour incubation
Procedure: K562 Cell Line (MTT Assay)
K562 human chronic myeloid leukaemia cells were maintained in RPM1 1640 medium supplemented with 10% fetal calf serum and 2 mM glutamine at 37° C. in a humidified atmosphere containing 5% CO2 and were incubated with a specified dose of drug for 1 hour at 37° C. in the dark. The incubation was terminated by centrifugation (5 min, 300 g) and the cells were washed once with drug-free medium. Following the appropriate drug treatment, the cells were transferred to 96-well microtiter plates (10^4 cells per well, 8 wells per sample). Plates were then kept in the dark at 37° C. in a humidified atmosphere containing 5% CO2. The assay is based on the ability of viable cells to reduce a yellow soluble tetrazolium salt, 3-(4,5-dimethylthiazol-2-yl)-2,5-diphenyl-2H-tetrazolium bromide (MTT, Aldrich-Sigma), to an insoluble purple formazan precipitate. Following incubation of the plates for 4 days (to allow control cells to increase in number by approximately 10 fold), 20 μL of MTT solution (5 mg/mL in phosphate-buffered saline) was added to each well and the plates further incubated for 5 h. The plates were then centrifuged for 5 min at 300 g and the bulk of the medium pipetted from the cell pellet leaving 10-20 μL per well. […] The optical density was then read at a wavelength of 550 nm on a Titertek Multiscan ELISA plate reader, and a dose-response curve was constructed. […]

With “1,1′[[(Propane-1,5-diyl)dioxy]bis[(11aS)-11-sulpho-7-methoxy-2-(4-methoxyphenyl)-1,10,11,11a-tetrahydro-5H-pyrrolo[2,1-c][1,4]benzodiazepin-5-one]] sodium salt [ZC-423]” the “single intravenous (iv) maximum tolerated dose (MTD)” value [1] was 3 mgkg^−1, the IC50 [2] was 4.83 nM and the “Amount of compound (g) in 1 L water” value (Solubility in water) was 11 g in 1 L water. For the same compound, the “activity (relative tumour volume vs control), Mann-Whitney analysis” value ([3]; single iv 3 mgkg^−1, FIG. 1) was “statistically significant”, the tumour free animals ([3]; single iv 3 mgkg^−1, at 68 days, FIG. 2) was “all animals were tumour free” and the IC50 [4] was 1.5 nM. The IC50 [5] was 5.2 nM.

For COc1cc2c(cc1OCCCOc1cc3c(cc1OC)C(=O)N1C=C(c4ccc5ccccc5c4)C[C@H]1C=N3)N=C[C@@H]1CC(c3ccc4ccccc4c3)=CN1C2=O [Compound 18], the IC50 [6] was 200 nM.

Compound COc1cc2c(cc1OCCCOc1cc3c(cc1OC)C(=O)N1C=C(c4cccs4)C[C@H]1C=N3)N=C[C@@H]1CC(c3cccs3)=CN1C2=O [Compound 21] has an IC50 [6] of 500 nM.

With COc1cccc(C2=CN3C(=O)c4cc(OC)c(OCCCOc5cc6c(cc5OC)C(=O)N5C=C(c7cccc(OC)c7)C[C@H]5C=N6)cc4N=C[C@@H]3C2)c1 [Compound 26, 1,1′-[[(Propane-1,3-diyl)dioxy]bis[(11aS)-7-methoxy-2-(3-methoxybenzene)-1,11a-dihydro-5H-pyrrolo[2,1-c][1,4]benzodiazepine-5-one]]] the IC50 (K562 cells; Homo sapiens) was less than 1 nM.

With COc1cccc(C2=CN3C(=O)c4cc(OC)c(OCCCOc5cc6c(cc5OC)C(=O)N5C=C(c7cccc(OC)c7)C[C@H]5C(S(=O)(=O)[O-])N6)cc4NC(S(=O)(=O)[O-])[C@@H]3C2)c1.[Na+].[Na+] (stereo partly drawn) [Compound 27, 1,1′-[[(Propane-1,3-diyl)dioxy]bis[(11aS)-11-sulpho-7-methoxy-2-(3-methoxybenzene)-1, 10,11,11a-tetrahydro-5H-pyrrolo[2,1-c][1,4]benzodiazepin-5-one]] sodium salt] the IC50 (K562 cells) was less than 1 nM and the “Amount of compound (g) in 1 L water” value (Solubility in water) was 9 g in 1 L water.

Work on COc1cc2c(cc1OCCCOc1cc3c(cc1OC)C(=O)N1C=C(c4ccc5c(c4)OCO5)C[C@H]1C=N3)N=C[C@@H]1CC(c3ccc4c(c3)OCO4)=CN1C2=O [Compound 29] yielded an IC50 (K562 cells; Homo sapiens) of less than 1 nM.

Work on COc1cc2c(cc1OCCCOc1cc3c(cc1OC)C(=O)N1C=C(c4ccc(F)cc4)C[C@H]1C=N3)N=C[C@@H]1CC(c3ccc(F)cc3)=CN1C2=O [Compound 32, 1,1′-[[(Propane-1,3-diyl)dioxy]bis[(11aS)-7-methoxy-2-(4-fluorobenzene)-1,11a-dihydro-5H-pyrrolo[2,1-c][1,4]benzodiazepine-5-one]]] yielded an IC50 (K562 cells; Homo sapiens) of less than 1 nM.

For COc1cc2c(cc1OCCCOc1cc3c(cc1OC)C(=O)N1C=C(c4ccc(F)cc4)C[C@H]1C(S(=O)(=O)[O-])N3)NC(S(=O)(=O)[O-])[C@@H]1CC(c3ccc(F)cc3)=CN1C2=O.[Na+].[Na+] (stereo partly drawn) [Compound 33, 1,1′-[[(Propane-1,3-diyl)dioxy]bis[(11aS)-11-sulpho-7-methoxy-2-(4-fluorobenzene)-1, 10,11,11a-tetrahydro-5H-pyrrolo[2,1-c][1,4]benzodiazepin-5-one]] sodium salt], the IC50 (K562 cells) was less than 1 nM and the “Amount of compound (g) in 1 L water” value (Solubility in water) was 3 g in 1 L water.

With COc1ccc(C2=CN3C(=O)c4cc(OC)c(OCCCOc5cc6c(cc5OC)C(=O)N5C=C(c7ccc(OC)cc7)C[C@H]5C=N6)cc4N=C[C@@H]3C2)cc1 [ZC-207, 1,1′-[[(Propane-1,3-diyl)dioxy]bis[(11aS)-7-methoxy-2-(p-methoxybenzene)-1,11a-dihydro-5H-pyrrolo[2,1-c][1,4]benzodiazepine-5-one]]] the IC50 [7] was 5.3 nM and the “Amount of compound (g) in 1 L water” value (Solubility in water) was “Insoluble”.
